Measurements from the NIST ThermoML archive (doi:10.1016/j.tca.2019.01.018).

Columns and labels:
[1] = Ring tensiometer
[2] = xn = mol fraction of the nth substance listed; settings: Ring tensiometer

CCCCCCn1cc[n+](C)c1.F[B-](F)(F)F [1-hexyl-3-methylimidazolium tetrafluoroborate]
[1]
Settings | surface tension liquid-gas [mN/m]
298.15 K | 37.22
308.15 K | 36.62
318.15 K | 35.92
328.15 K | 35.22
338.15 K | 34.52

CCCCCCn1cc[n+](C)c1.F[B-](F)(F)F [1-hexyl-3-methylimidazolium tetrafluoroborate] + O
surface tension liquid-gas [mN/m], [2]
Settings | x1 = 0.3 | x1 = 0.4 | x1 = 0.5 | x1 = 0.6 | x1 = 0.7 | x1 = 0.8 | x1 = 0.9 | x1 = 1
298.15 K | 38.1 | 37.7 | 37.54 | 37.42 | 37.33 | 37.26 | 37.23 | 37.22
308.15 K | 37.26 | 37.08 | 36.84 | 36.82 | 36.73 | 36.66 | 36.63 | 36.62
318.15 K | 36.56 | 36.28 | 36.34 | 36.12 | 36.03 | 35.86 | 35.93 | 35.92
328.15 K | 35.96 | 35.68 | 35.64 | 35.42 | 35.33 | 35.26 | 35.23 | 35.22
338.15 K | 35.26 | 34.98 | 34.84 | 34.72 | 34.63 | 34.56 | 34.53 | 34.52

O [water]
[1]
Settings | surface tension liquid-gas [mN/m]
298.15 K | 71.8
308.15 K | 70.1
318.15 K | 68.4
328.15 K | 66.7
338.15 K | 65

O [water] + CCCCCCn1cc[n+](C)c1.F[B-](F)(F)F
[2], x2 = 0
Settings | surface tension liquid-gas [mN/m]
298.15 K | 71.8
308.15 K | 70.1
318.15 K | 68.4
328.15 K | 66.7
338.15 K | 65

O [water] + CCCCn1cc[n+](C)c1.F[B-](F)(F)F
[2], x2 = 0
Settings | surface tension liquid-gas [mN/m]
298.15 K | 71.8
308.15 K | 70.1
318.15 K | 68.4
328.15 K | 66.7
338.15 K | 65

O [water] + CCn1cc[n+](C)c1.F[B-](F)(F)F
[2], x2 = 0
Settings | surface tension liquid-gas [mN/m]
298.15 K | 71.8
308.15 K | 70.1
318.15 K | 68.4
328.15 K | 66.7
338.15 K | 65
